# Experimental data as given in patent publication US20110152302A1, “Novel dicyclanil-based shelf stable aqueous suspension and non-aqueous solution pour-on and spray-on formulations useful for the prevention and treatment of insect infestation in animals” (priority 2009, published 2011).
# Tests used:
# [1] = Solubility of dicyclanil in solvents at 25° C.; type: physicochemical
# Experimental: (§1) Materials and Methods: To determine the range of potential non-aqueous solvents to be used in producing dicyclanil solution formulations, a range of solubility studies were performed. The method employed was to add 500 mg quantities of dicyclanil into 10 mL each of solvent. If the drug dissolved it was placed into the refrigerator overnight. Samples were then taken out of the refrigerator and checked for the emergence of precipitate after the sample had been returned to room temperature. Thereafter, dicyclanil was added to each solution, 100 mg each time, until no more dicyclanil would dissolve in the solvent (i.e. dicyclanil was added until the solution reached its saturation concentration for dicyclanil).
# As a result, a further range of solvents was tested. The solvents used for these solubility studies are defined in TABLE 13.
# [2] = Dicyclanil crystal formation in water with 5% surfactant; type: physicochemical
# Experimental: A commercially manufactured batch of Dicyclanil Polymorph A was sourced. This crystalline form was confirmed by X-Ray Diffraction (FIG. 1). Studies were then conducted to determine the ability of various surfactants to prevent the growth of dicyclanil crystals suspended in water. Nonyl phenol and octyl phenol ethoxylates were tested in an aqueous medium according to TABLE 2.
# Given the inability of the surfactants of TABLE 2 to prevent crystal growth, a further range of surfactants was tested.
# [3] = Stability of dicyclanil 5% PEG200 solutions, refrigerated and accelerated temperature, 5 days; type: physicochemical
# Experimental: Materials and Methods: A formulation was prepared in the following manner (concentration summarized in TABLE 16): • a) Loaded 90% PEG 200 • b) Added Dicyclanil with mixing • c) Made to volume with PEG 200 • d) Mixed until dissolved
# Several test formulations were made to determine their stability under refrigerated (2-8° C.) and accelerated temperature (70° C.) conditions for 5 days. DIC 021, 022 and 025 were prepared according to the method described above.
# [4] = more active than cyromazine; cited from earlier work
# [5] = Maximum solubility of dicyclanil in non-aqueous solvents; type: physicochemical
# Experimental: as §1
# Results: An initial range of solvents was obtained (TABLE 12).
# [6] = Solubility of dicyclanil in solvents at 70° C.; type: physicochemical
# [7] = water with 5% surfactant, Most = >90%
structure (smiles),measurement,setting,value
"N#Cc1c(N)nc(NC2CC2)nc1N [Dicyclanil, 4,6-diamino-2-(cyclopropylamino)-5-pyrimidinecarbonitrile]","solubility of dicyclanil, soluble at 5%","[1]; 25° C., BA",less
same,"solubility of dicyclanil, soluble at 5%","[1]; 25° C., DGBE",less
same,"solubility of dicyclanil, soluble at 5%","[1]; 25° C., DGMEE",less
same,"solubility of dicyclanil, soluble at 5%","[1]; 25° C., DMA",✓
same,"solubility of dicyclanil, soluble at 6%","[1]; 25° C., DMA",✓
same,"solubility of dicyclanil, soluble at 7%","[1]; 25° C., DMA",✓
same,"solubility of dicyclanil, soluble at 8%","[1]; 25° C., DMA",✓
same,"solubility of dicyclanil, soluble at 9%","[1]; 25° C., DMA",✓
same,"solubility of dicyclanil, soluble at 10%","[1]; 25° C., DMA, 10%",✓
same,"solubility of dicyclanil, soluble at 11%","[1]; 25° C., DMA, 11%",✓
same,"solubility of dicyclanil, soluble at 12%","[1]; 25° C., DMA, 12%",✓
same,"solubility of dicyclanil, soluble at 13%","[1]; 25° C., DMA, 13%",✓
same,"solubility of dicyclanil, soluble at 14%","[1]; 25° C., DMA, 14%",✓
same,"solubility of dicyclanil, soluble at 15%","[1]; 25° C., DMA, 15%",✓
same,"solubility of dicyclanil, soluble at 16%","[1]; 25° C., DMA, 16%",✓
same,"solubility of dicyclanil, soluble at 17%","[1]; 25° C., DMA, 17%",✓
same,"solubility of dicyclanil, soluble at 18%","[1]; 25° C., DMA, 18%",✓
same,"solubility of dicyclanil, soluble at 5%","[1]; 25° C., DMSO",✓
same,"solubility of dicyclanil, soluble at 6%","[1]; 25° C., DMSO",✓
same,"solubility of dicyclanil, soluble at 7%","[1]; 25° C., DMSO",✓
same,"solubility of dicyclanil, soluble at 8%","[1]; 25° C., DMSO",✓
same,"solubility of dicyclanil, soluble at 9%","[1]; 25° C., DMSO",✓
same,"solubility of dicyclanil, soluble at 5%","[1]; 25° C., EL",less
same,"solubility of dicyclanil, soluble at 5%","[1]; 25° C., GF",less
same,"solubility of dicyclanil, soluble at 5%","[1]; 25° C., IPA",less
same,"solubility of dicyclanil, soluble at 5%","[1]; 25° C., PEG200",✓
same,"solubility of dicyclanil, soluble at 6%","[1]; 25° C., PEG200",✓
same,"solubility of dicyclanil, soluble at 7%","[1]; 25° C., PEG200",✓
same,"solubility of dicyclanil, soluble at 5%","[1]; 25° C., PEG400",less
same,"solubility of dicyclanil, soluble at 5%","[1]; 25° C., PG",less
same,solubility in words,"[1]; Isopropyl Alcohol, Benzyl Alcohol, Ethyl Lactate, Propylene Glycol, Diethylene Glycol monobutyl Ether",quite insoluble
same,solubility of dicyclanil in PEG200,"[1]; at 25° C., PEG200",7%
same,solubility of dicyclanil in PEG400,"[1]; at 25° C., PEG400",less than 5%
same,"Dicyclanil Crystal Formation, 3 days","[2]; water, No surfactant added",Large crystals up to 200μ
same,"Dicyclanil Crystal Formation, Initial","[2]; water, No surfactant added","Long thin, up to 200μ"
same,solubility in PEG (in words),[3]; PEG,good solubility
same,concentration at which dicyclanil remains stable without additional excipients,[3]; PEG-based formulations,at least 5%
same,activity relative to cyromazine,[4],10 times
same,solubility in words,[5]; many of the commonly used veterinary topical solvents (TABLE 12),quite insoluble
same,Maximum solubility (% w/v),[5]; solvent 2-Pyrollidone,1% w/v
same,Maximum solubility (% w/v),[5]; solvent Benzyl Alcohol,<1% w/v
same,Maximum solubility (% w/v),[5]; solvent DGBE,2% w/v
same,Maximum solubility (% w/v),[5]; solvent Glycofurol,6% w/v
same,Maximum solubility (% w/v),[5]; solvent IPM,<1% w/v
same,Maximum solubility (% w/v),[5]; solvent MIGLYOL 810,<1% w/v
same,Maximum solubility (% w/v),[5]; solvent MIGLYOL 840,<1% w/v
same,Maximum solubility (% w/v),[5]; solvent NMP,4% w/v
same,Maximum solubility (% w/v),[5]; solvent Propylene Glycol,1% w/v
same,"solubility of dicyclanil, soluble at 5%","[6]; BA, 5%",less
same,"solubility of dicyclanil, soluble at 5%","[6]; DGBE, 5%",less
same,"solubility of dicyclanil, soluble at 5%","[6]; DGMEE, 5%",✓
same,"solubility of dicyclanil, soluble at 5%","[6]; DMA, 5%",✓
same,"solubility of dicyclanil, soluble at 10%",[6]; DMA,✓
same,"solubility of dicyclanil, soluble at 15%",[6]; DMA,✓
same,"solubility of dicyclanil, soluble at 20%",[6]; DMA,✓
same,"solubility of dicyclanil, soluble at 25%",[6]; DMA,✓
same,"solubility of dicyclanil, soluble at 5%","[6]; DMSO, 5%",✓
same,"solubility of dicyclanil, soluble at 10%",[6]; DMSO,✓
same,"solubility of dicyclanil, soluble at 15%",[6]; DMSO,✓
same,"solubility of dicyclanil, soluble at 20%",[6]; DMSO,✓
same,"solubility of dicyclanil, soluble at 25%",[6]; DMSO,✓
same,"solubility of dicyclanil, soluble at 5%","[6]; EL, 5%",✓
same,"solubility of dicyclanil, soluble at 5%","[6]; GF, 5%",✓
same,"solubility of dicyclanil, soluble at 10%",[6]; GF,✓
same,"solubility of dicyclanil, soluble at 5%","[6]; IPA, 5%",less
same,"solubility of dicyclanil, soluble at 5%","[6]; PEG400, 5%",✓
same,"solubility of dicyclanil, soluble at 5%","[6]; PG, 5%",less
CCCCC(CC)COC(=O)CC(C(=O)OCC(CC)CCCC)S(=O)(=O)[O-].[Na+] (centres unmarked) [Docusate sodium],"Dicyclanil Crystal Formation, 3 days",[2]; [7],Large crystals up to 200μ
same,"Dicyclanil Crystal Formation, Initial",[2]; [7],Up to 100μ
CCCCCCCCCCCCOS(=O)(=O)[O-].[Na+] [Sodium lauryl sulphate],"Dicyclanil Crystal Formation, 3 days",[2]; [7],Large crystals up to 200μ
same,"Dicyclanil Crystal Formation, Initial",[2]; [7],Mostly up to 200μ
